# Test results as given in patent US9822118B2, “Bicyclic heteroaryl urea, thiourea, guanidine and cyanoguanidine compounds as TrkA kinase inhibitors” (Array BioPharma Inc., priority 2012, dated 2017).
# Molecular target: T1, recombinant human TrkA (Homo sapiens, UniProt P04629)
# T1 construct: 6HIS tagged cytoplasmic domain from Invitrogen, Catalog No. PV3144; purchased Invitrogen PV3144
# Test: TrkA LanthaScreen Eu Kinase Binding Assay
# Details: averaged IC50; TR-FRET binding assay, 60 min at 22° C.; read-out: TrkA Enzyme IC50
# Protocol: TrkA binding activity was determined in a TrkA LanthaScreen™ Eu Kinase Binding Assay. 5 nM His-tagged recombinant human TrkA (6HIS tagged cytoplasmic domain from Invitrogen, Catalog No. PV3144) was incubated with 4 nM Alexa-Fluor® Tracer 236 (Invitrogen Cat. No. PV5592), 2 nM biotinylated anti-His (Invitrogen Cat. No. PV6090), and 2 nM europium-labeled Streptavidin (Invitrogen Cat. No. PV5899), in buffer (25 mM MOPS, pH 7.5, 5 mM MgCl2, 0.005% Triton X-100). Three fold serial dilutions of compounds of the invention in DMSO were added to a final percentage of 2% DMSO. After 60-minute incubation at 22° C., the reaction was measured using the EnVision multimode plate reader (PerkinElmer) via TR-FRET dual wavelength detection at […]. The percent of control was calculated using a ratiometric emission factor. The IC50 values were determined by fitting a four parameter model to the percent of control data.
# Table A provides averaged IC50 values for compounds of the invention when tested in the assay of Example A, where A represents an averaged IC50 value <100 nM; and B represents an averaged IC50 value from 100 to 1,000 nM.
# T1 sequence (P04629 440-796 limits assumed): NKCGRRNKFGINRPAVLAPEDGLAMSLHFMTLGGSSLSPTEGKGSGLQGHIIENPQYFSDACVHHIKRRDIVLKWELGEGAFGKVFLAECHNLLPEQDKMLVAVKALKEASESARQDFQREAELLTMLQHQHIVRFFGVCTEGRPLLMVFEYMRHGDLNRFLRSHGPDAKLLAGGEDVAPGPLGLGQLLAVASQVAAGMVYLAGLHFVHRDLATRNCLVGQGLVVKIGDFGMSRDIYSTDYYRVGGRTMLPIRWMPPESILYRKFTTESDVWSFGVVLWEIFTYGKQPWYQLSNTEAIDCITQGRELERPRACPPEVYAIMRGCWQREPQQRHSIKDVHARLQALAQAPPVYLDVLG
row,IC50 [nM],SMILES
1,< 100,"O=C(Nc1c2c(nn1-c1ccccc1)CCCC2)Nc1c(-c2ccccc2)nc2c(C(F)(F)F)cccn12 [Example 20, 1-(2-phenyl-4,5,6,7-tetrahydro-2H-indazol-3-yl)-3-(2-phenyl-8-(trifluoromethyl)imidazo[1,2-a]pyridin-3-yl)urea]"
2,< 100,"O=C(Nc1c2c(nn1-c1ccccc1)CS(=O)(=O)C2)Nc1c(-c2ccccc2)nc2c(C(F)(F)F)cccn12 [Example 18, 1-(5,5-dioxido-2-phenyl-4,6-dihydro-2H-thieno[3,4-c]pyrazol-3-yl)-3-(2-phenyl-8-(trifluoromethyl)imidazo[1,2-a]pyridin-3-yl)urea]"
3,< 100,"CCOc1nn(-c2ccccc2)c(NC(=O)Nc2c(-c3ccccc3)nc3c(C(F)(F)F)cccn23)c1C [Example 3, 1-(3-ethoxy-4-methyl-1-phenyl-1H-pyrazol-5-yl)-3-(2-phenyl-8-(trifluoromethyl)imidazo[1,2-a]pyridin-3-yl)urea]"
